Experimental data as given in US20240252488A1 (KOREA RESEARCH INSTITUTE OF CHEMICAL TECHNOLOGY, priority 2020, published 2024).

Columns and labels:
MLKL [1] = biological target: T1, MLKL (Homo sapiens, UniProt Q8NB16); experiment: MLKL degradation assay in HepG2 cell line (western blot); type: cell-based; parameters: endogenous in cells; host or cells: HepG2 or HaCaT; conditions: cell line not given; for Degradation assay (Degradation %) 1 μM: compound 1 μM; for Degradation assay (Degradation %) 10 μM: compound 10 μM
T1 sequence (Q8NB16 1-471): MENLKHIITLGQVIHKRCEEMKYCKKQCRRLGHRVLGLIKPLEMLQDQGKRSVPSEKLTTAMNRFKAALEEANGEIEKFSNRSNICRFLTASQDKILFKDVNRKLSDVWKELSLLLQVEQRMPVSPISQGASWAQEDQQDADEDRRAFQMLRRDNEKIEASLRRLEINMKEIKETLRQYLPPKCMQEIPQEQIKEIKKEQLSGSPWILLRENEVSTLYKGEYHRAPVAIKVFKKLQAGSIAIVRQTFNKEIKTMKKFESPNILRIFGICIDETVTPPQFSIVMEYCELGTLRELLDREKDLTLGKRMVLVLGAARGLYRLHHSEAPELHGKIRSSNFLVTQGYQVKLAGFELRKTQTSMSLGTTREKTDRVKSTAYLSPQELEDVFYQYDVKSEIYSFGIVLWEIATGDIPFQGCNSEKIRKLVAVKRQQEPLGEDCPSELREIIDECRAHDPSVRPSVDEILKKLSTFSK
Summary of the method: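 Degradation is judged from MLKL band intensity on immunoblots of HepG2 lysates taken after 20-24 hours of compound at final 1 or 10 μM.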

MLKL [2] = biological target: T1, MLKL; experiment: Measurement of binding affinity with MLKL receptor (competitive binding assay, Kd); parameters: made in house; host or cells: HEK 293 cell line (T7 phage in E. coli BL21-derived host is also described)
Summary of the method: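 Kd comes from a bead-based competition format: compound-dependent loss of DNA-tagged, HEK 293-expressed MLKL capture, measured as eluate kinase by qPCR. Final DMSO is 0.9%.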

FADD−/− Jurkat cells = experiment: Necroptosis inhibition assay, TNF-α-induced necroptosis (CellTiter-Glo 2.0); type: cell-based, human; conditions: TNF-α 15 ng/mL; for Necroptosis inhibition assay (Rescue %) 1 μM: compound 1 μM; for Necroptosis inhibition assay (Rescue %) 10 μM: compound 10 μM
Summary of the method: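 Tested at three fixed concentrations (0.1, 1, 10 μM final) with a 30-minute room-temperature preincubation ahead of 15 ng/mL TNF-α challenge lasting 20 to 24 hours. Inhibition rate and cytotoxicity derive from ATP luminescence.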

Row | Compound | Degradation assay (Degradation %) 1 μM (MLKL [1]) | Degradation assay (Degradation %) 10 μM (MLKL [1]) | Kd (MLKL [2]) | Necroptosis inhibition assay (Rescue %) 1 μM (FADD−/− Jurkat cells) | Necroptosis inhibition assay (Rescue %) 10 μM (FADD−/− Jurkat cells)
1 | Nc1ncc(-c2cnn(C3CCN(C(=O)C4CCN(C(=O)C5CCN(c6ccc7c(c6)C(=O)N(C6CCC(=O)NC6=O)C7=O)CC5)CC4)CC3)c2)nc1C(=O)OC(C(=O)Nc1ccc(F)cc1)c1ccccc1 (stereo not shown) [TDH-274, 2-((4-fluorophenyl)amino)-2-oxo-1-phenylethyl 3-amino-6-(1-(1-(1-(1-(2-(2,6-dioxopiperidin-3-yl)-1,3-dioxoisoindolin-5-yl)piperidine-4-carbonyl)piperidine-4-carbonyl)piperidin-4-yl)-1H-pyrazol-4-yl)pyrazine-2-carboxylate] | 56.81% | 38.77% | 5.2 nM | 77.01% | 57.62%
2 | Nc1ncc(-c2cnn(C3CCN(C(=O)C4CCN(C(=O)CNc5cccc6c5C(=O)N(C5CCC(=O)NC5=O)C6=O)CC4)CC3)c2)nc1C(=O)OC(C(=O)Nc1ccc(F)cc1)c1ccccc1 (stereo not shown) [TDH-275, 2-((4-fluorophenyl)amino)-2-oxo-1-phenylethyl 3-amino-6-(1-(1-(1-((2-(2,6-dioxopiperidin-3-yl)-1,3-dioxoisoindolin-4-yl)glycyl)piperidine-4-carbonyl)piperidin-4-yl)-1H-pyrazol-4-yl)pyrazine-2-carboxylate] | 57.84% | 63.11% | 4.9 nM | 69.59% | 69.98%
3 | Nc1ncc(-c2cnn(C3CCN(C(=O)C4CCN(C(=O)CNc5ccc6c(c5)C(=O)N(C5CCC(=O)NC5=O)C6=O)CC4)CC3)c2)nc1C(=O)OC(C(=O)Nc1ccc(F)cc1)c1ccccc1 (stereo not shown) [TDH-276, 2-((4-fluorophenyl)amino)-2-oxo-1-phenylethyl 3-amino-6-(1-(1-(1-((2-(2,6-dioxopiperidin-3-yl)-1,3-dioxoisoindolin-5-yl)glycyl)piperidine-4-carbonyl)piperidin-4-yl)-1H-pyrazol-4-yl)pyrazine-2-carboxylate] | 78.62% | 75.61% | 3.6 nM | 75.36% | 70.49%
4 | Nc1ncc(-c2cnn(C3CCN(C(=O)C4CCN(C(=O)COc5cccc6c5C(=O)N(C5CCC(=O)NC5=O)C6=O)CC4)CC3)c2)nc1C(=O)OC(C(=O)Nc1ccc(F)cc1)c1ccccc1 (stereo not shown) [TDH-277, 2-((4-fluorophenyl)amino)-2-oxo-1-phenylethyl 3-amino-6-(1-(1-(1-(2-((2-(2,6-dioxopiperidin-3-yl)-1,3-dioxoisoindolin-4-yl)oxy)acetyl)piperidine-4-carbonyl)piperidin-4-yl)-1H-pyrazol-4-yl)pyrazine-2-carboxylate] | 40.52% | 53.39% | 1.5 nM | 43.59% | 13.88%
5 | Nc1ncc(-c2cnn(C3CCN(C(=O)C4CCN(C(=O)COc5ccc6c(c5)C(=O)N(C5CCC(=O)NC5=O)C6=O)CC4)CC3)c2)nc1C(=O)OC(C(=O)Nc1ccc(F)cc1)c1ccccc1 (stereo not shown) [TDH-278, 2-((4-fluorophenyl)amino)-2-oxo-1-phenylethyl 3-amino-6-(1-(1-(1-(2-((2-(2,6-dioxopiperidin-3-yl)-1,3-dioxoisoindolin-5-yl)oxy)acetyl)piperidine-4-carbonyl)piperidin-4-yl)-1H-pyrazol-4-yl)pyrazine-2-carboxylate] | 64.63% | 75.28% | 1.4 nM | 63.64% | 39.23%
6 | Nc1ncc(-c2cnn(C3CCN(C(=O)C4CCN(c5cccc6c5C(=O)N(C5CCC(=O)NC5=O)C6=O)CC4)CC3)c2)nc1C(=O)OC(C(=O)Nc1ccc(F)cc1)c1ccccc1 (stereo not shown) [TDH-279, 2-((4-fluorophenyl)amino)-2-oxo-1-phenylethyl 3-amino-6-(1-(1-(1-(2-(2,6-dioxopiperidin-3-yl)-1,3-dioxoisoindolin-4-yl)piperidine-4-carbonyl)piperidin-4-yl)-1H-pyrazol-4-yl)pyrazine-2-carboxylate] | 38.42% | 15.86% | 5 nM | 24.78% | 44.14%
7 | Nc1ncc(-c2cnn(C3CCN(C(=O)C4CCN(c5ccc6c(c5)C(=O)N(C5CCC(=O)NC5=O)C6=O)CC4)CC3)c2)nc1C(=O)OC(C(=O)Nc1ccc(F)cc1)c1ccccc1 (stereo not shown) [TDH-280, 2-((4-fluorophenyl)amino)-2-oxo-1-phenylethyl 3-amino-6-(1-(1-(1-(2-(2,6-dioxopiperidin-3-yl)-1,3-dioxoisoindolin-5-yl)piperidine-4-carbonyl)piperidin-4-yl)-1H-pyrazol-4-yl)pyrazine-2-carboxylate] | 53.99% | 39.22% | 9.3 nM | 33.16% | 19.54%
8 | Nc1ncc(-c2cnn([C@H]3CCN(CC4CCN(C(=O)CNc5cccc6c5C(=O)N(C5CCC(=O)NC5=O)C6=O)CC4)C3)c2)nc1C(=O)OC(C(=O)Nc1ccc(F)cc1)c1ccccc1 (stereo partly drawn) [TDH-281, 2-((4-fluorophenyl)amino)-2-oxo-1-phenylethyl 3-amino-6-(1-((3S)-1-((1-((2-(2,6-dioxopiperidin-3-yl)-1,3-dioxoisoindolin-4-yl)glycyl)piperidin-4-yl)methyl)pyrrolidin-3-yl)-1H-pyrazol-4-yl)pyrazine-2-carboxylate] | 45.01% | 10.1% | 5.7 nM | 29.65% | 26.95%
9 | Nc1ncc(-c2cnn([C@H]3CCN(CC4CCN(C(=O)CNc5ccc6c(c5)C(=O)N(C5CCC(=O)NC5=O)C6=O)CC4)C3)c2)nc1C(=O)OC(C(=O)Nc1ccc(F)cc1)c1ccccc1 (stereo partly drawn) [TDH-282, 2-((4-fluorophenyl)amino)-2-oxo-1-phenylethyl 3-amino-6-(1-((3S)-1-((1-((2-(2,6-dioxopiperidin-3-yl)-1,3-dioxoisoindolin-5-yl)glycyl)piperidin-4-yl)methyl)pyrrolidin-3-yl)-1H-pyrazol-4-yl)pyrazine-2-carboxylate] | 60.51% | 58.02% | 5.6 nM | 77.92% | 67.84%
10 | Nc1ncc(-c2cnn([C@H]3CCN(CC4CCN(C(=O)COc5cccc6c5C(=O)N(C5CCC(=O)NC5=O)C6=O)CC4)C3)c2)nc1C(=O)OC(C(=O)Nc1ccc(F)cc1)c1ccccc1 (stereo partly drawn) [TDH-283, 2-((4-fluorophenyl)amino)-2-oxo-1-phenylethyl 3-amino-6-(1-((3S)-1-((1-(2-((2-(2,6-dioxopiperidin-3-yl)-1,3-dioxoisoindolin-4-yl)oxy)acetyl)piperidin-4-yl)methyl)pyrrolidin-3-yl)-1H-pyrazol-4-yl)pyrazine-2-carboxylate] | 4.29% | 31.1% | 2.1 nM | 44.29% | 54.92%
11 | Nc1ncc(-c2cnn([C@H]3CCN(CC4CCN(C(=O)COc5ccc6c(c5)C(=O)N(C5CCC(=O)NC5=O)C6=O)CC4)C3)c2)nc1C(=O)OC(C(=O)Nc1ccc(F)cc1)c1ccccc1 (stereo partly drawn) [TDH-284, 2-((4-fluorophenyl)amino)-2-oxo-1-phenylethyl 3-amino-6-(1-((3S)-1-((1-(2-((2-(2,6-dioxopiperidin-3-yl)-1,3-dioxoisoindolin-5-yl)oxy)acetyl)piperidin-4-yl)methyl)pyrrolidin-3-yl)-1H-pyrazol-4-yl)pyrazine-2-carboxylate] | 42.05% | 58.09% | 2.6 nM | 75.95% | 52.77%
